Test results: US5491169A, “Amino acid derivatives and their therapeutical applications” (priority 1989, dated 1996)

What was measured:
[1] = molecular target: T1, purified rabbit kidney neutral endopeptidase (Oryctolagus cuniculus, UniProt P08049); test: In vitro inhibitory potency against neutral endopeptidase; type: biochemical; conditions: purified rabbit kidney enzyme, (3H)-D-Ala2-Leu5-enkephalin, 25° C., pH 7.4, DTT 100 equivalents
T1 construct: from tissue; host or cells: rabbit kidney (purified enzyme)
T1 sequence (P08049 1-750): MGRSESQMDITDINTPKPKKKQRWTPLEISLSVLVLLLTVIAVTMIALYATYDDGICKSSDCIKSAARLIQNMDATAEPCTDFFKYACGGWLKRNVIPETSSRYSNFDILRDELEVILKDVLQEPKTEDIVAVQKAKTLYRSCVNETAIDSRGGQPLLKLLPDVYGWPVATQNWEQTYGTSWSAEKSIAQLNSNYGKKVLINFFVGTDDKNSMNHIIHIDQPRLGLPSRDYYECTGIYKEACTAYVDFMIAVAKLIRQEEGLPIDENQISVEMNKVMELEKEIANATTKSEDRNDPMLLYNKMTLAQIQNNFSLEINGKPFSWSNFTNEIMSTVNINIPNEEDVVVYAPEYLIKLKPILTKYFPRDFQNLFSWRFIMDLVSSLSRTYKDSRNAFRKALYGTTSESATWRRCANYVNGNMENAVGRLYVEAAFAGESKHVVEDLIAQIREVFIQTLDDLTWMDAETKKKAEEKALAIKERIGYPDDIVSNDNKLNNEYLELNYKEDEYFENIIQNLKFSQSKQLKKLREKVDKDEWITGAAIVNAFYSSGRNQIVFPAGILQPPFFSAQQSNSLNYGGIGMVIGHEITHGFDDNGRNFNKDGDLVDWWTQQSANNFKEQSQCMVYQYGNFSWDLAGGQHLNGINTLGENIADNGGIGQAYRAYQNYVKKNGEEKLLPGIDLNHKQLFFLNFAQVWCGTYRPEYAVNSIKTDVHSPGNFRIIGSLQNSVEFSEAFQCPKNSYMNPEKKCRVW
Description: (§1) The biological activity relates to the inhibition of purified aminopeptidase N and of purified neutral endopeptidase.
(§2) 1) In vitro inhibition of enkephalinase activities.
a) Inhibitory potency against neutral endopeptidase
The inhibitory power is determined on purified rabbit kidney neutral endopeptidase following the protocol described in the literature (Blumberg et al. Life Sci. (1981) 28, 301). After a preincubation for 15 minutes at 25° C., an aliquot of proteins is incubated for 20 minutes at 25° C. in the presence of 20 nmol of (^3 H)-D-Ala^2 -Leu^5 -enkephalin and the test compound in solution in Tris-HCl buffer (pH 7.4) in the presence of dithiothreitol DTT (100 equivalents relative to the inhibitor). The reaction is stopped by adding 0.2 N HCl. The tritiated metabolite (^3 H)-Tyr-D-Ala-Gly is separated from the D-Ala^2 -Leu^5 -enkephalin by chromatography on a Porapak column, and the quantity formed measured using a liquid scintillation counter.
The activity of the different compounds is expressed as 50% inhibitory concentrations (IC50), and the results are summarized in Table II.

[2] = molecular target: T2, purified porcine kidney aminopeptidase N (Sus scrofa, UniProt P15145); test: In vitro inhibitory potency against aminopeptidase N; type: biochemical; conditions: purified porcine kidney enzyme, (3H)-Leu5-enkephalin, DTT
T2 construct: purchased Boehringer, France; host or cells: porcine kidney
T2 sequence (P15145 1-963): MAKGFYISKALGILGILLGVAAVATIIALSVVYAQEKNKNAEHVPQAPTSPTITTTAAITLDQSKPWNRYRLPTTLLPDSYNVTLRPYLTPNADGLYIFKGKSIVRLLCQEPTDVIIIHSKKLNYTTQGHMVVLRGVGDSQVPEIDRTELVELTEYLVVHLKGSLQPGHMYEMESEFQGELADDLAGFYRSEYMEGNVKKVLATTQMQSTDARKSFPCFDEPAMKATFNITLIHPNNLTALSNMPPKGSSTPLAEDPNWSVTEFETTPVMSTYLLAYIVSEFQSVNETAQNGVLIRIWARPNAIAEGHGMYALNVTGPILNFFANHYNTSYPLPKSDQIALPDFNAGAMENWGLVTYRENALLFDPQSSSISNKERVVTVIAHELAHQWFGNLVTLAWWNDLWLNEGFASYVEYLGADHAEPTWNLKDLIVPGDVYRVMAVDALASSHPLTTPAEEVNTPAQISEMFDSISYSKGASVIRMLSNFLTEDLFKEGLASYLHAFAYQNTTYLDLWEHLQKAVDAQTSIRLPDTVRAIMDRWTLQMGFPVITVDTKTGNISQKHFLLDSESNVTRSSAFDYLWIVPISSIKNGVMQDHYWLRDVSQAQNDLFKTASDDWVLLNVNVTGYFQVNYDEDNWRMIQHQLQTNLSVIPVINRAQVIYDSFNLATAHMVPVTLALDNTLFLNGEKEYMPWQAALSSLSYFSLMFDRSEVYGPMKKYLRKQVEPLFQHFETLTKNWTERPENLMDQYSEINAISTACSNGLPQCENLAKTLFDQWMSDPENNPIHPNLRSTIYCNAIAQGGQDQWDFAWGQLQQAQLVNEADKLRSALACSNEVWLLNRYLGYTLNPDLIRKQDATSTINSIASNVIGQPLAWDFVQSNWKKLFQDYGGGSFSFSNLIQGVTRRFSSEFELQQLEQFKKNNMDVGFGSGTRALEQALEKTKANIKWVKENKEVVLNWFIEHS
Description: as §1, §2
b) Inhibitory potency against aminopeptidase N
The inhibitory power is measured on purified porcine kidney aminopeptidase (Boehringer, France). The assay is performed in a manner identical to the above, using (^3 H)-Leu^5 -enkephalin as a substrate. The metabolite formed, (^3 H)-Tyr, is separated by chromatography on a Porapak column, and the quantity formed measured using a liquid scintillation counter.

[3] = Hot plate test, i.v.; type: in vivo; conditions: Mus musculus, iv, mice, hot plate 55° C., Table III 50% analgesia
Description: (§3) 1) Hot .plate test: This involves the licking and jumping reflex of the mouse on a plate heated to 55° C., according to the method of Jacob et al (Arch Int. Pharmacodyn. 122 287, 1959; 1961).
1.1. Administered i.v. (100 μl in tail vein) in mice, the compounds tested display a characteristic effect both on the latency time of jumping and on latency time of licking. These effects are antagonized by naloxone (0.5 mg/kg s.c.).
The results are expressed in Table III as a % analgesia. The percentage analgesia is expressed for each dose of compound tested by the following formula: [formula]

[4] = Test on abdominal cramps induced by phenylbenzoquinone, i.v.; type: in vivo
Description: 2) Test on abdominal cramps
(Hendershot and Forsaith. J. Pharmacol. (1975), 125, 237): This test measures the number of cramps induced by i.p. injection of 100 μl of a 0.02% solution of phenylbenzoquinone. The number of cramps is counted during 10 minutes, 10 minutes after the injection. Administered i.v., the compounds decrease the number of cramps.

[5] = Tail flick test (withdrawal of the tail), i.v.; type: in vivo; conditions: rats, 10 mg/kg
Description: 3) Test of withdrawal of the tail in rats: (tail flick test): administered i.v. in rats, the compounds according to the invention produce a significant extension of the time of withdrawal of the tail. These effects are antagonized by naloxone (0.5 mg/kg s.c.).
The results are expressed as a % analgesia for the same dose (10 mg/kg) of all the compounds tested.

[6] = system: cerebral NEP; test: In vivo inhibition of cerebral NEP; conditions: mice, i.v.
Description: 2) "In vivo" inhibition of cerebral NEP
The enzymatic activity of cerebral NEP is compared in mice untreated or treated with a given dose of compound (approximately 2.5 mg/kg injected intravenously. The animals are sacrificed at variable times after injection of the inhibitor, and the NEP activity is determined in the brain by measuring the degradation of (^3 H)-D-Ala^2 -Leu^5 -enkephalin.
For the final compound of Example 1, injected at a dose of 2.7 μmol/kg (47.6 μg in 100 μl), the following results are obtained: […]

[7] = Hot plate test, i.p.; type: in vivo; conditions: mice
Description: as §3
1.2 Administered i.p. in mice, the test compounds display a characteristic effect on the times of restraint of jumping and of licking. These effects are antagonized by naloxone (0.5 mg/kg).

[8] = Tolerance after long-term administration, mice (% analgesia); type: in vivo; conditions: mouse, s.c. four times per 24 h, compound 8 5 mg/kg, morphine 0.5 mg/kg
Description: (§4) e) Study of the tolerance and addiction effects induced by long-term administration of the compound of Example 8:
(§5) 1) The compound 8 is administered s.c. four times per 24 hours at a dose of 5 mg/kg for 6 days to mice and at 10 mg/kg to rats.
(§6) Morphine (hydrochloride) is administered under the same conditions (0.5 mg/kg in mice, 2 mg/kg in rats). The control animals receive only the vehicle.

[9] = Tolerance after long-term administration, rats (% analgesia); type: in vivo; conditions: rat, s.c. four times per 24 h, compound 8 10 mg/kg, morphine 2 mg/kg, compound 7 dose not given
Description: as §4, §5, §6

NC(CSSCC(Cc1ccccc1)C(=O)NCC(=O)OCc1ccccc1)Cc1ccccc1 (stereo not shown) [Example 4]
IC50 [1]: 2 nM | IC50 [2]: 8 nM

CC(C)CC(N)CSSCC(Cc1ccccc1)C(=O)NC(Cc1ccccc1)C(=O)OCc1ccccc1 (stereo not shown) [Example 3]
IC50 [1]: 1.2 nM | IC50 [2]: 5 nM

CC(C)CC(N)CSSCC(Cc1ccccc1)C(=O)NCC(=O)OCc1ccccc1 (stereo not shown) [Example 1]
IC50 [1]: 2 nM | ED50 [3]: 4 mg/kg | % analgesia (abdominal cramps) ([4]; 1 mg/kg): 24.6% ± 8 | % analgesia (abdominal cramps) ([4]; 3 mg/kg): 46.9% ± 7.9 | % analgesia (abdominal cramps) ([4]; 9 mg/kg): 73.9% ± 8.2 | % analgesia (tail flick) [5]: 20% | % inhibition cerebral NEP ([6]; 2.7 μmol/kg (Example 7: same conditions), 60'): 68 ± 4% | % inhibition cerebral NEP ([6]; 2.7 μmol/kg (Example 7: same conditions), 120'): 63 ± 2% | % inhibition cerebral NEP ([6]; 2.7 μmol/kg (Example 7: same conditions), 180'): 42 ± 16% | % inhibition cerebral NEP ([6]; 2.7 μmol/kg, 15' (n = 4)): 96 ± 9% | IC50 [2]: 5 nM | dose in i.p. hot plate table [7]: 10 mg/kg

C[S+]([O-])CCC(N)CSSCC(CC[S+](C)[O-])C(=O)NC(CC(=O)OCc1ccccc1)c1ccccc1 (stereo not shown) [Example 28]
IC50 [1]: 3 nM | ED50 [3]: 4 mg/kg | IC50 [2]: 2 nM

CN1CC[C@]23c4c5ccc(O)c4O[C@H]2[C@@H](O)C=C[C@H]3[C@H]1C5 [morphine, reference compound]
% analgesia relative to the controls ([8]; day 0): 100 ± 10% | % analgesia relative to the controls ([8]; day 1): 60 ± 10% | % analgesia relative to the controls ([8]; day 6): 0% | % analgesia relative to the controls ([9]; day 0): 70 ± 12% | % analgesia relative to the controls ([9]; day 1): 20 ± 3% | % analgesia relative to the controls ([9]; day 6): 0%

CSCCC(N)CSSCC(Cc1ccccc1)C(=O)NC(C)C(=O)OCc1ccccc1 (stereo not shown) [Example 6]
IC50 [1]: 1.2 nM | IC50 [2]: 2 nM

CC(C)CC(CSSCC(N)CC[S+](C)[O-])C(=O)NN1CCOCC1 (stereo not shown) [Example 33]
IC50 [1]: 5 nM | IC50 [2]: 2 nM

C[S+]([O-])CCC(N)CSSCC(Cc1ccccc1)C(=O)NC1CCCCC1C(=O)OCc1ccccc1 (stereo not shown) [Example 26]
IC50 [1]: 5 nM | ED50 [3]: 8 mg/kg | IC50 [2]: 2 nM

CC(C)CC(N)CSSCC(Cc1ccccc1)C(=O)NC(C)C(=O)OCc1ccccc1 (stereo not shown) [Example 2]
IC50 [1]: 2.5 nM | IC50 [2]: 5 nM

C[S+]([O-])CCC(N)CSSCC(CC[S+](C)[O-])C(=O)NC1CCCCC1C(=O)OCc1ccccc1 (stereo not shown) [Example 32]
IC50 [1]: 4 nM | ED50 [3]: 2 mg/kg | % analgesia (tail flick) [5]: 36% | IC50 [2]: 2 nM | dose in i.p. hot plate table [7]: 5.5 mg/kg

CC(NC(=O)C(CC[S+](C)[O-])CSSCC(N)CC[S+](C)[O-])C(=O)OCc1ccccc1 (stereo not shown) [Example 22]
IC50 [1]: 7 nM | ED50 [3]: 4.5 mg/kg | IC50 [2]: 2 nM | dose in i.p. hot plate table [7]: 6 mg/kg
